Test results reported in publication PMC12102759 (Protein Science : A Publication of the Protein Society, 2025).

Tested on: G3BP1 NFT2
Format: binding, human
Conditions: library DMS-BM; bait G3BP1 NFT2; prey CAPRIN1; AQMQGPYNFIQDSM(averaged): mean of the two overlapping peptides over the shared positions

Substance	DMS position-specific score (PSSM value) per amino-acid substitution, averaged
AQMQGPYNFIQDSM(averaged) A1A	0.1937
AQMQGPYNFIQDSM(averaged) A1D (DQMQGPYNFIQDSM)	0.01051
AQMQGPYNFIQDSM(averaged) A1E (EQMQGPYNFIQDSM)	0.1606
AQMQGPYNFIQDSM(averaged) A1F (FQMQGPYNFIQDSM)	0.03963
AQMQGPYNFIQDSM(averaged) A1G (GQMQGPYNFIQDSM)	0.01098
AQMQGPYNFIQDSM(averaged) A1H (HQMQGPYNFIQDSM)	0.006137

Tested on: G3BP1 NFT2
Format: binding, human
Conditions: library DMS-CoV; bait G3BP1 NFT2; prey N; peptide RNAPRITFGGPSDSTG; listed as aa = residue placed at this position; column sums to 1

Substance	DMS PSSM value, P (position 11)	DMS PSSM value, R (position 5)	DMS PSSM value, S (position 12)	DMS PSSM value, S (position 14)	DMS PSSM value, T (position 7)	DMS PSSM value, T (position 15)
RNAPRITFGGPSDSTG P11S (RNAPRITFGGSSDSTG)	0					
RNAPRITFGGPSDSTG P11T (RNAPRITFGGTSDSTG)	0					
RNAPRITFGGPSDSTG P11V (RNAPRITFGGVSDSTG)	0					
RNAPRITFGGPSDSTG P11W (RNAPRITFGGWSDSTG)	0					
RNAPRITFGGPSDSTG P11Y (RNAPRITFGGYSDSTG)	0					
RNAPRITFGGPSDSTG R5A (RNAPAITFGGPSDSTG)		0.0005421				
RNAPRITFGGPSDSTG R5D (RNAPDITFGGPSDSTG)		0.0001605				
RNAPRITFGGPSDSTG R5E (RNAPEITFGGPSDSTG)		0.1354				
RNAPRITFGGPSDSTG R5F (RNAPFITFGGPSDSTG)		0				
RNAPRITFGGPSDSTG R5G (RNAPGITFGGPSDSTG)		0				
RNAPRITFGGPSDSTG R5H (RNAPHITFGGPSDSTG)		0.001007				
RNAPRITFGGPSDSTG R5I (RNAPIITFGGPSDSTG)		0.009613				
RNAPRITFGGPSDSTG R5K (RNAPKITFGGPSDSTG)		0.0001577				
RNAPRITFGGPSDSTG R5L (RNAPLITFGGPSDSTG)		0.01198				
RNAPRITFGGPSDSTG R5M (RNAPMITFGGPSDSTG)		0.2004				
RNAPRITFGGPSDSTG R5N (RNAPNITFGGPSDSTG)		0				
RNAPRITFGGPSDSTG R5P (RNAPPITFGGPSDSTG)		0.5972				
RNAPRITFGGPSDSTG R5Q (RNAPQITFGGPSDSTG)		0.0005824				
RNAPRITFGGPSDSTG R5S (RNAPSITFGGPSDSTG)		0.002286				
RNAPRITFGGPSDSTG R5T (RNAPTITFGGPSDSTG)		0.001368				
RNAPRITFGGPSDSTG R5V (RNAPVITFGGPSDSTG)		0.006458				
RNAPRITFGGPSDSTG R5W (RNAPWITFGGPSDSTG)		0				
RNAPRITFGGPSDSTG R5Y (RNAPYITFGGPSDSTG)		0.03289				
RNAPRITFGGPSDSTG S12A (RNAPRITFGGPADSTG)			0.3916			

Substance	DMS PSSM value, P (position 11)	DMS PSSM value, R (position 5)	DMS PSSM value, S (position 12)	DMS PSSM value, S (position 14)	DMS PSSM value, T (position 7)	DMS PSSM value, T (position 15)
RNAPRITFGGPSDSTG S12D (RNAPRITFGGPDDSTG)			0			
RNAPRITFGGPSDSTG S12E (RNAPRITFGGPEDSTG)			0.6084			
RNAPRITFGGPSDSTG S12F (RNAPRITFGGPFDSTG)			0			
RNAPRITFGGPSDSTG S12G (RNAPRITFGGPGDSTG)			0			
RNAPRITFGGPSDSTG S12H (RNAPRITFGGPHDSTG)			0			
RNAPRITFGGPSDSTG S12I (RNAPRITFGGPIDSTG)			0			
RNAPRITFGGPSDSTG S12K (RNAPRITFGGPKDSTG)			0			
RNAPRITFGGPSDSTG S12L (RNAPRITFGGPLDSTG)			0			
RNAPRITFGGPSDSTG S12M (RNAPRITFGGPMDSTG)			0			
RNAPRITFGGPSDSTG S12N (RNAPRITFGGPNDSTG)			0			
RNAPRITFGGPSDSTG S12P (RNAPRITFGGPPDSTG)			0			
RNAPRITFGGPSDSTG S12Q (RNAPRITFGGPQDSTG)			0			
RNAPRITFGGPSDSTG S12R (RNAPRITFGGPRDSTG)			0			
RNAPRITFGGPSDSTG S12T (RNAPRITFGGPTDSTG)			0			
RNAPRITFGGPSDSTG S12V (RNAPRITFGGPVDSTG)			0			
RNAPRITFGGPSDSTG S12W (RNAPRITFGGPWDSTG)			0			
RNAPRITFGGPSDSTG S12Y (RNAPRITFGGPYDSTG)			0			
RNAPRITFGGPSDSTG S14A (RNAPRITFGGPSDATG)				0		
RNAPRITFGGPSDSTG S14D (RNAPRITFGGPSDDTG)				0		
RNAPRITFGGPSDSTG S14E (RNAPRITFGGPSDETG)				0		
RNAPRITFGGPSDSTG S14F (RNAPRITFGGPSDFTG)				0		
RNAPRITFGGPSDSTG S14G (RNAPRITFGGPSDGTG)				0		
RNAPRITFGGPSDSTG S14H (RNAPRITFGGPSDHTG)				0		
RNAPRITFGGPSDSTG S14I (RNAPRITFGGPSDITG)				0		

Substance	DMS PSSM value, P (position 11)	DMS PSSM value, R (position 5)	DMS PSSM value, S (position 12)	DMS PSSM value, S (position 14)	DMS PSSM value, T (position 7)	DMS PSSM value, T (position 15)
RNAPRITFGGPSDSTG S14K (RNAPRITFGGPSDKTG)				0		
RNAPRITFGGPSDSTG S14L (RNAPRITFGGPSDLTG)				0		
RNAPRITFGGPSDSTG S14M (RNAPRITFGGPSDMTG)				0.3095		
RNAPRITFGGPSDSTG S14N (RNAPRITFGGPSDNTG)				0.6905		
RNAPRITFGGPSDSTG S14P (RNAPRITFGGPSDPTG)				0		
RNAPRITFGGPSDSTG S14Q (RNAPRITFGGPSDQTG)				0		
RNAPRITFGGPSDSTG S14R (RNAPRITFGGPSDRTG)				0		
RNAPRITFGGPSDSTG S14T (RNAPRITFGGPSDTTG)				0		
RNAPRITFGGPSDSTG S14V (RNAPRITFGGPSDVTG)				0		
RNAPRITFGGPSDSTG S14W (RNAPRITFGGPSDWTG)				0		
RNAPRITFGGPSDSTG S14Y (RNAPRITFGGPSDYTG)				0		
RNAPRITFGGPSDSTG T7A (RNAPRIAFGGPSDSTG)					0	
RNAPRITFGGPSDSTG T7D (RNAPRIDFGGPSDSTG)					0	
RNAPRITFGGPSDSTG T7E (RNAPRIEFGGPSDSTG)					1	
RNAPRITFGGPSDSTG T7F (RNAPRIFFGGPSDSTG)					0	
RNAPRITFGGPSDSTG T7G (RNAPRIGFGGPSDSTG)					0	
RNAPRITFGGPSDSTG T7H (RNAPRIHFGGPSDSTG)					0	
RNAPRITFGGPSDSTG T7I (RNAPRIIFGGPSDSTG)					0	
RNAPRITFGGPSDSTG T7K (RNAPRIKFGGPSDSTG)					0	
RNAPRITFGGPSDSTG T7L (RNAPRILFGGPSDSTG)					0	
RNAPRITFGGPSDSTG T7M (RNAPRIMFGGPSDSTG)					0	
RNAPRITFGGPSDSTG T7N (RNAPRINFGGPSDSTG)					0	
RNAPRITFGGPSDSTG T7P (RNAPRIPFGGPSDSTG)					0	
RNAPRITFGGPSDSTG T7Q (RNAPRIQFGGPSDSTG)					0	

Substance	DMS PSSM value, P (position 11)	DMS PSSM value, R (position 5)	DMS PSSM value, S (position 12)	DMS PSSM value, S (position 14)	DMS PSSM value, T (position 7)	DMS PSSM value, T (position 15)
RNAPRITFGGPSDSTG T7R (RNAPRIRFGGPSDSTG)					0	
RNAPRITFGGPSDSTG T7S (RNAPRISFGGPSDSTG)					0	
RNAPRITFGGPSDSTG T7V (RNAPRIVFGGPSDSTG)					0	
RNAPRITFGGPSDSTG T7W (RNAPRIWFGGPSDSTG)					0	
RNAPRITFGGPSDSTG T7Y (RNAPRIYFGGPSDSTG)					0	
RNAPRITFGGPSDSTG T15A (RNAPRITFGGPSDSAG)						0
RNAPRITFGGPSDSTG T15D (RNAPRITFGGPSDSDG)						0
RNAPRITFGGPSDSTG T15E (RNAPRITFGGPSDSEG)						0
RNAPRITFGGPSDSTG T15F (RNAPRITFGGPSDSFG)						0
RNAPRITFGGPSDSTG T15G (RNAPRITFGGPSDSGG)						0
RNAPRITFGGPSDSTG T15H (RNAPRITFGGPSDSHG)						0
RNAPRITFGGPSDSTG T15I (RNAPRITFGGPSDSIG)						1
RNAPRITFGGPSDSTG T15K (RNAPRITFGGPSDSKG)						0
RNAPRITFGGPSDSTG T15L (RNAPRITFGGPSDSLG)						0
RNAPRITFGGPSDSTG T15M (RNAPRITFGGPSDSMG)						0
RNAPRITFGGPSDSTG T15N (RNAPRITFGGPSDSNG)						0
RNAPRITFGGPSDSTG T15P (RNAPRITFGGPSDSPG)						0
RNAPRITFGGPSDSTG T15Q (RNAPRITFGGPSDSQG)						0
RNAPRITFGGPSDSTG T15R (RNAPRITFGGPSDSRG)						0
RNAPRITFGGPSDSTG T15S (RNAPRITFGGPSDSSG)						0
RNAPRITFGGPSDSTG T15V (RNAPRITFGGPSDSVG)						0
RNAPRITFGGPSDSTG T15W (RNAPRITFGGPSDSWG)						0
RNAPRITFGGPSDSTG T15Y (RNAPRITFGGPSDSYG)						0
